Assay results published in ChEMBL document CHEMBL1201862, “PubChem BioAssay data set” (2004).
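Each compound was tested at five concentrations against cells in 96-well plates for 48 hours. GI50 = concentration required for 50% inhibition of growth.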 Calls of active or inactive are those of the source. No stated cut-off is given here; in the data, active = GI50 up to about 1.1 µM and inactive = higher.

Assays:
Assay in all cases: inhibition of tumour cell growth, NCI panel, 48 h
LOX IMVI = system: LOX IMVI
HT-29 = system: HT-29
A549 = system: A549
SNB-75 = system: SNB-75
TK-10 = system: TK-10
U-251 = system: U-251
ACHN = system: ACHN
SNB-19 = system: SNB-19
SK-OV-3 = system: SK-OV-3
HCT-116 = system: HCT-116
RXF 393 = system: RXF 393
M14 = system: M14
SW-620 = system: SW-620
NCI-H23 = system: NCI-H23
SK-MEL-2 = system: SK-MEL-2
SR = system: SR
SF-539 = system: SF-539
A498 = system: A498
KM12 = system: KM12
786-0 = system: 786-0

| SMILES | GI50 (LOX IMVI) | GI50 (HT-29) | GI50 (A549) | GI50 (SNB-75) | GI50 (TK-10) | GI50 (U-251) | GI50 (ACHN) | GI50 (SNB-19) | GI50 (SK-OV-3) | GI50 (HCT-116) | GI50 (RXF 393) | GI50 (M14) | GI50 (SW-620) | GI50 (NCI-H23) | GI50 (SK-MEL-2) | GI50 (SR) | GI50 (SF-539) | GI50 (A498) | GI50 (KM12) | GI50 (786-0) |
| --- | --- | --- | --- | --- | --- | --- | --- | --- | --- | --- | --- | --- | --- | --- | --- | --- | --- | --- | --- | --- |
| COc1ccc(/C(Cl)=C(\C=O)c2ccc(Cl)cc2)cc1OC | 3.45 µM (inactive) | 4.97 µM (inactive) | 6.17 µM (inactive) | 3.85 µM (inactive) | 5.26 µM (inactive) | 3.85 µM (inactive) | 3.18 µM (inactive) | 6.73 µM (inactive) | 34.8 µM (inactive) | 4.33 µM (inactive) | 6.01 µM (inactive) | 22.4 µM (inactive) | 3.75 µM (inactive) | 3.01 µM (inactive) | 3.71 µM (inactive) | 2.49 µM (inactive) | 9.79 µM (inactive) | 23.7 µM (inactive) | – | – |
| Nc1nc(SCCC/C=C/B(O)O)nc2c1ncn2C1OC(CO)C(O)C1O (stereo unspecified) | > 243 µM (inactive) | > 243 µM (inactive) | > 243 µM (inactive) | > 243 µM (inactive) | > 243 µM (inactive) | > 243 µM (inactive) | > 243 µM (inactive) | > 243 µM (inactive) | > 243 µM (inactive) | > 243 µM (inactive) | > 243 µM (inactive) | > 243 µM (inactive) | > 243 µM (inactive) | > 243 µM (inactive) | > 243 µM (inactive) | > 243 µM (inactive) | > 243 µM (inactive) | > 243 µM (inactive) | > 243 µM (inactive) | – |
| CCCC/C(C)=N/NC(N)=S | > 100 µM (inactive) | > 100 µM (inactive) | > 100 µM (inactive) | > 100 µM (inactive) | > 100 µM (inactive) | > 100 µM (inactive) | > 100 µM (inactive) | > 100 µM (inactive) | > 100 µM (inactive) | > 100 µM (inactive) | > 100 µM (inactive) | > 100 µM (inactive) | > 100 µM (inactive) | > 100 µM (inactive) | > 100 µM (inactive) | > 100 µM (inactive) | > 100 µM (inactive) | > 100 µM (inactive) | > 100 µM (inactive) | > 100 µM (inactive) |
| COc1cc(C(=O)C2C(=O)c3ccccc3C2C2(O)c3ccccc3CC2C(O)c2cc(OC)c(OC)c(OC)c2)cc(OC)c1OC (stereo unspecified) | > 100 µM (inactive) | > 100 µM (inactive) | > 100 µM (inactive) | 20.3 µM (inactive) | > 100 µM (inactive) | 41.3 µM (inactive) | > 100 µM (inactive) | > 100 µM (inactive) | 32.1 µM (inactive) | > 100 µM (inactive) | > 100 µM (inactive) | > 100 µM (inactive) | > 100 µM (inactive) | > 100 µM (inactive) | > 100 µM (inactive) | > 100 µM (inactive) | 37.2 µM (inactive) | > 100 µM (inactive) | > 100 µM (inactive) | > 100 µM (inactive) |
| O=c1[nH]cnc2[nH]nnc12 | 0.668 µM (active) | 7.96 µM (inactive) | 84.9 µM (inactive) | 4.11 µM (inactive) | 7.52 µM (inactive) | 34.6 µM (inactive) | 12 µM (inactive) | 88.5 µM (inactive) | 4.31 µM (inactive) | 2.1 µM (inactive) | 2.62 µM (inactive) | 1.11 µM (active) | 1.49 µM (inactive) | 35.6 µM (inactive) | 0.386 µM (active) | 0.92 µM (active) | 3.85 µM (inactive) | 57 µM (inactive) | 32.7 µM (inactive) | 3.27 µM (inactive) |
| C=C1C(OC(C)=O)CC(OC(C)=O)C2(C)C(OC(C)=O)C(OC(C)=O)C3=C(C)C(OC(=O)/C=C/c4ccccc4)CC(C(OC(C)=O)C12)C3(C)C (stereo unspecified) | > 100 µM (inactive) | > 100 µM (inactive) | > 100 µM (inactive) | 15.1 µM (inactive) | > 100 µM (inactive) | 36.2 µM (inactive) | 35.5 µM (inactive) | 51.8 µM (inactive) | 30.5 µM (inactive) | > 100 µM (inactive) | 36.4 µM (inactive) | > 100 µM (inactive) | > 100 µM (inactive) | – | 55.6 µM (inactive) | > 100 µM (inactive) | 25.5 µM (inactive) | 61.1 µM (inactive) | > 100 µM (inactive) | 30.8 µM (inactive) |
| Brc1ccc2c(-c3csc(-c4c[nH]c5cc(Br)ccc45)n3)c[nH]c2c1 | 20.9 µM (inactive) | 15.8 µM (inactive) | 19.5 µM (inactive) | 25.1 µM (inactive) | 30.8 µM (inactive) | 15.8 µM (inactive) | 44 µM (inactive) | 21.3 µM (inactive) | 18.5 µM (inactive) | 14.5 µM (inactive) | 23.4 µM (inactive) | 17.7 µM (inactive) | 16 µM (inactive) | 18.5 µM (inactive) | > 83 µM (inactive) | 5.61 µM (inactive) | 19.6 µM (inactive) | 37.1 µM (inactive) | 11.8 µM (inactive) | 22 µM (inactive) |
